Laboratory results: patent publication US20100022521A1, “COMPOUNDS” (Hansa Metallwerke AG, priority 2005, published 2010)
One block for each compound: values may come before it.

Target: mGluR5 (UniProt P31424)
Test: MGluR5 receptor binding test ([3H]-M-MPEP displacement)
Design: species or system rat
Conditions: radioligand [3H]-M-MPEP (2 nM); species not given; read-out: mGlu5 Ki
Procedure: MGluR5 Receptor Binding Tests
Rat cerebro-cortical membrane preparation was used to determine the binding characteristics of reference compounds and novel compounds to the rat mGluR5. The A18 cell line expressing hmGluR5a (purchased from Euroscreen) was used to determine binding characteristics of the chemical compounds to the human mGluR5a receptor. As radioligand [3H]-M-MPEP (2 nM) was used. The nonspecific binding was determined in the presence of 10 μM M-MPEP.

Structure (SMILES): O=S(=O)(c1cccc(F)c1)c1sc2nc(F)ccc2c1-c1ccc(Cl)cc1 [Compound 77]
- Ki: < 500 nM

Structure (SMILES): Cc1cc(C)cc(S(=O)(=O)c2sc3ncccc3c2-c2ccc(Cl)cc2)c1 [Compound 44]
- Ki: < 500 nM

Structure (SMILES): O=S(=O)(c1ccc(Cl)cc1)c1sc2ncccc2c1-c1cccc(Cl)c1 [Compound 60]
- Ki: < 500 nM

Structure (SMILES): COc1ccc2c(-c3ccc(Cl)cc3)c(S(=O)(=O)c3cccc(C#N)c3)sc2n1 [Compound 64, 2-(3-Cyano-benzenesulfonyl)-3-(4-chloro-phenyl)-6-methoxy-thieno[2,3-b]pyridine]
- Ki: < 500 nM

Structure (SMILES): CN(C)c1c(S(=O)(=O)c2ccc(Cl)cc2)sc2ncccc12 [Compound 100]
- Ki: < 500 nM

Structure (SMILES): Cc1ccc(-c2c(S(=O)(=O)c3cccc(C)c3)sc3ncccc23)cc1 [Compound 26]
- Ki: < 500 nM

Structure (SMILES): CC1CCN(c2c(S(=O)(=O)c3ccc(Cl)cc3)sc3ncccc23)CC1 [Compound 94]
- Ki: < 500 nM

Structure (SMILES): N#Cc1cccc(S(=O)(=O)c2sc3ncccc3c2-c2ccc(F)cc2)c1 [Compound 29]
- Ki: < 500 nM

Structure (SMILES): Cc1cccc(S(=O)(=O)c2sc3ncccc3c2-c2ccc(Cl)cc2)c1 [Compound 22]
- Ki: < 500 nM

Structure (SMILES): O=S(=O)(c1ccc(Cl)cc1)c1sc2ncccc2c1N1CCCC(O)C1 (centres unmarked) [Compound 98]
- Ki: < 500 nM

Structure (SMILES): O=S(=O)(c1ccc(Cl)cc1)c1sc2ncccc2c1N1CCC(C(F)(F)F)CC1 [Compound 92]
- Ki: < 500 nM

Structure (SMILES): COc1cccc(S(=O)(=O)c2sc3ncccc3c2-c2ccc(Cl)cc2)c1 [Compound 70]
- Ki: < 500 nM

Structure (SMILES): O=S(=O)(c1ccc(Br)cc1)c1sc2ncccc2c1-c1ccc(Cl)cc1 [Compound 25]
- Ki: < 500 nM

Structure (SMILES): O=S(=O)(c1ccc(Cl)cc1)c1sc2ncccc2c1-c1ccc(Cl)c(Cl)c1 [Compound 41]
- Ki: < 500 nM

Structure (SMILES): CC1CCN(S(=O)(=O)c2sc3ncccc3c2-c2ccc(Cl)cc2)CC1 [Compound 20, 3-(4-Chlorophenyl)-2-(4-methyl-piperidine-1-sulfonyl)-thieno[2,3-b]pyridine]
- Ki: 500 to 1500 nM

Structure (SMILES): CN(C)c1ccc2c(-c3ccc(Cl)cc3)c(S(=O)(=O)c3ccc(Cl)cc3)sc2n1 [Compound 47, 2-(4-Chloro-benzenesulfonyl)-3-(4-chloro-phenyl)-6-dimethylamino-thieno[2,3-b]pyridine]
- Ki: 500 to 1500 nM

Structure (SMILES): Cc1ccc(S(=O)(=O)c2sc3nc(Cl)ccc3c2-c2ccc(Cl)cc2)cc1F [Compound 81]
- Ki: < 500 nM

Structure (SMILES): COc1ccnc2sc(S(=O)(=O)c3ccc(Cl)cc3)c(-c3ccc(Cl)cc3)c12 [Compound 101, 2-(4-chloro-benzenesulfonyl)-3-(4-chloro-phenyl)-4-methoxy-thieno[2,3-b]pyridine]
- Ki: < 500 nM

Structure (SMILES): O=S(=O)(c1ccccc1Cl)c1sc2ncccc2c1-c1ccc(Cl)cc1 [Compound 6]
- Ki: 500 to 1500 nM

Structure (SMILES): O=S(=O)(c1ccc(C(F)(F)F)cc1)c1sc2ncccc2c1-c1ccc(Cl)cc1 [Compound 68]
- Ki: < 500 nM

Structure (SMILES): N#Cc1cc(F)cc(S(=O)(=O)c2sc3nc(Cl)ccc3c2-c2ccc(Cl)cc2)c1 [Compound 86, 2-(3-Cyano-5-fluoro-benzenesulfonyl)-3-(4-chloro-phenyl)-6-chloro-thieno[2,3-b]pyridine]
- Ki: < 500 nM

Structure (SMILES): CC1CCN(c2c(S(=O)(=O)c3cc(F)cc(C#N)c3)sc3ncccc23)CC1 [Compound 96]
- Ki: < 500 nM

Structure (SMILES): CS(=O)(=O)Nc1cnc2sc(S(=O)(=O)c3ccc(Cl)cc3)c(-c3ccc(Cl)cc3)c2c1 [Compound 85, N-[2-(4-Chloro-benzenesulfonyl)-3-(4-chloro-phenyl)-thieno[2,3-b]pyridin-5-yl]-methanesulfonamide]
- Ki: < 500 nM

Structure (SMILES): N#Cc1cccc(S(=O)(=O)c2sc3nc(Cl)ccc3c2-c2ccc(Cl)cc2)c1 [Compound 51]
- Ki: > 1500 nM

Structure (SMILES): O=S(=O)(c1ccc(Cl)cc1)c1sc2nc(F)ccc2c1-c1ccc(Cl)cc1 [Compound 58]
- Ki: < 500 nM

Structure (SMILES): O=S(=O)(c1ccc(Cl)cc1)c1sc2nccc(Cl)c2c1-c1ccc(Cl)cc1 [Compound 57, 4-Chloro-2-(4-chloro-benzenesulfonyl)-3-(4-chloro-phenyl)-thieno[2,3-b]pyridine]
- Ki: < 500 nM

Structure (SMILES): O=S(=O)(c1cccc(F)c1)c1sc2ncccc2c1-c1ccc(Cl)cc1 [Compound 31]
- Ki: < 500 nM

Structure (SMILES): CC1CCCN(c2c(S(=O)(=O)c3cccc(C#N)c3)sc3ncccc23)C1 (centres unmarked) [Compound 32]
- Ki: < 500 nM

Structure (SMILES): O=S(=O)(c1cccc(F)c1)c1sc2nc(Cl)ccc2c1-c1ccc(Cl)cc1 [Compound 76]
- Ki: 500 to 1500 nM

Structure (SMILES): CC(C)c1ccc(S(=O)(=O)c2sc3ncccc3c2-c2ccc(Cl)cc2)cc1 [Compound 88]
- Ki: < 500 nM

Structure (SMILES): N#Cc1cccc(S(=O)(=O)c2sc3nc(Cl)ccc3c2-c2ccc(F)cc2)c1 [Compound 74]
- Ki: < 500 nM

Structure (SMILES): Cc1cc(C)c(S(=O)(=O)c2sc3ncccc3c2-c2ccc(Cl)cc2)c(C)c1 [Compound 56]
- Ki: > 1500 nM

Structure (SMILES): Cc1ccc(S(=O)(=O)c2sc3ncccc3c2-c2ccc(F)cc2)cc1C [Compound 24]
- Ki: < 500 nM

Structure (SMILES): N#Cc1cccc(-c2c(S(=O)(=O)c3cccc(C#N)c3)sc3ncccc23)c1 [Compound 66]
- Ki: < 500 nM

Structure (SMILES): Nc1ccc2c(-c3ccc(Cl)cc3)c(S(=O)(=O)c3ccc(Cl)cc3)sc2n1 [Compound 49, 6-Amino-2-(4-chloro-benzenesulfonyl)-3-(4-chloro-phenyl)-thieno[2,3-b]pyridine]
- Ki: < 500 nM

Structure (SMILES): O=S(=O)(c1cc(F)cc(C(F)(F)F)c1)c1sc2ncccc2c1-c1ccc(Cl)cc1 [Compound 34]
- Ki: < 500 nM

Structure (SMILES): O=S(=O)(c1ccc(Br)s1)c1sc2ncccc2c1-c1ccc(Cl)cc1 [Compound 45]
- Ki: < 500 nM

Structure (SMILES): N#CC1CCN(c2c(S(=O)(=O)c3ccc(Cl)cc3)sc3ncccc23)CC1 [Compound 93]
- Ki: 500 to 1500 nM

Structure (SMILES): Cc1ccc(S(=O)(=O)c2sc3ncccc3c2-c2ccc(Cl)cc2)cc1F [Compound 39]
- Ki: < 500 nM

The next lines start with the values.

- Ki: < 500 nM
Structure (SMILES): COc1ccc(S(=O)(=O)c2sc3ncccc3c2-c2ccc(F)cc2)cc1F [Compound 126]

- Ki: < 500 nM
Structure (SMILES): O=S(=O)(c1ccc(Cl)cc1)c1sc2ncccc2c1-c1ccccc1F [Compound 114]

- Ki: < 500 nM
Structure (SMILES): CC1CCN(c2c(S(=O)(=O)c3ccc(Cl)cc3)sc3ncc(N)cc23)CC1 [Compound 104, 5-Amino-2-(4-chloro-benzenesulfonyl)-3-(4-methyl-piperidine)-thieno[2,3-b]pyridine]

- Ki: < 500 nM
Structure (SMILES): O=S(=O)(c1ccc(Cl)cc1)c1sc2nccc(F)c2c1-c1ccc(Cl)cc1 [Compound 102, 4-Fluor-2-(4-chloro-benzenesulfonyl)-3-(4-chloro-phenyl)-thieno[2,3-b]pyridine]

- Ki: < 500 nM
Structure (SMILES): COc1ccc(S(=O)(=O)c2sc3ncccc3c2-c2cccc(F)c2)cc1F [Compound 127]

- Ki: < 500 nM
Structure (SMILES): O=S(=O)(c1ccc(Cl)cc1)c1sc2ncccc2c1-c1ccc(F)cc1F [Compound 130]

- Ki: 500 to 1500 nM
Structure (SMILES): CN(C)c1ccnc2sc(S(=O)(=O)c3ccc(Cl)cc3)c(-c3ccc(Cl)cc3)c12 [Compound 135, 2-(4-Chloro-benzenesulfonyl)-3-(4-chloro-phenyl)-4-dimethylamino-thieno[2,3-b]pyridine]

- Ki: > 1500 nM
Structure (SMILES): O=S(=O)(c1ccc(Cl)cc1)c1sc2ncccc2c1N1CCN(c2ccc(F)cc2)CC1 [Compound 118]

- Ki: > 1500 nM
Structure (SMILES): O=S(=O)(c1ccc(Cl)cc1)c1sc2ncccc2c1N1CC[S+]([O-])CC1 [Compound 117]

- Ki: > 1500 nM
Structure (SMILES): CC(=O)N1CCN(c2c(S(=O)(=O)c3ccc(Cl)cc3)sc3ncccc23)CC1 [Compound 105]

- Ki: < 500 nM
Structure (SMILES): CC1CCN(c2c(S(=O)(=O)c3ccc(Cl)cc3)sc3nc(Cl)ccc23)CC1 [Compound 119]

- Ki: < 500 nM
Structure (SMILES): O=S(=O)(c1ccc(Cl)cc1)c1sc2ncccc2c1N1CCCC1 [Compound 129]

- Ki: > 1500 nM
Structure (SMILES): CS(=O)(=O)NC1CCN(c2c(S(=O)(=O)c3ccc(Cl)cc3)sc3ncccc23)CC1 [Compound 116]

- Ki: > 1500 nM
Structure (SMILES): CN1CCN(C(=O)Nc2c(S(=O)(=O)c3ccc(Cl)cc3)sc3ncccc23)CC1 [Compound 122]

- Ki: > 1500 nM
Structure (SMILES): CNC(=O)Nc1c(S(=O)(=O)c2ccc(Cl)cc2)sc2ncccc12 [Compound 112]

- Ki: < 500 nM
Structure (SMILES): O=S(=O)(c1ccc(Cl)cc1)c1sc2ncccc2c1N1CCC(F)(F)CC1 [Compound 134]

- Ki: < 500 nM
Structure (SMILES): Nc1cnc2sc(S(=O)(=O)c3ccc(Cl)cc3)c(-c3cccc(F)c3)c2c1 [Compound 115, 5-Amino-2-(4-chloro-benzenesulfonyl)-3-(3-fluor-phenyl)-thieno[2,3-b]pyridine]

- Ki: < 500 nM
Structure (SMILES): Nc1cnc2sc(S(=O)(=O)c3ccc(Cl)cc3)c(-c3ccccc3F)c2c1 [Compound 131]

- Ki: < 500 nM
Structure (SMILES): N#Cc1cc(F)cc(S(=O)(=O)c2sc3nc(F)ccc3c2-c2cccc(F)c2)c1 [Compound 139]

- Ki: > 1500 nM
Structure (SMILES): CNC(=O)Nc1c(S(=O)(=O)c2ccc(OC)cc2)sc2ncccc12 [Compound 111]

- Ki: < 500 nM
Structure (SMILES): O=S(=O)(c1ccc(Cl)cc1)c1sc2ncc(F)cc2c1-c1ccc(Cl)cc1 [Compound 123, 2-(4-Chloro-benzenesulfonyl)-3-(4-chloro-phenyl)-5-fluoro-thieno[2,3-b]pyridine]

- Ki: > 1500 nM
Structure (SMILES): CN(C)c1ccc(S(=O)(=O)c2sc3nccc(N(C)C)c3c2-c2ccc(Cl)cc2)cc1 [Compound 124, 3-(4-chloro-phenyl)-4-dimethylamino-2-(4-dimethylamino-benzenesulfonyl)-thieno[2,3-b]pyridine]

- Ki: 500 to 1500 nM
Structure (SMILES): O=S(=O)(c1ccc(Cl)cc1)c1sc2nccc(O)c2c1-c1ccc(Cl)cc1 [Compound 103, 2-(4-chloro-benzenesulfonyl)-3-(4-chloro-phenyl)-4-hydroxy-thieno[2,3-b]pyridine]

- Ki: < 500 nM
Structure (SMILES): CC1CCN(c2c(S(=O)(=O)c3ccc(Cl)cc3)sc3ncc(O)cc23)CC1 [Compound 107]

- Ki: < 500 nM
Structure (SMILES): O=S(=O)(c1ccc(Cl)cc1)c1sc2ncccc2c1-c1ccccc1Cl [Compound 113]

- Ki: < 500 nM
Structure (SMILES): O=S(=O)(c1ccc(Cl)cc1)c1sc2ncccc2c1N1CC[C@@H](F)C1 [Compound 141]
